Read-outs that look alike come from different tables or passages of the source.

Common to all, as to assay type: cell-based, human
For assay [1], the system named is SMN2 mRNA. Put plainly: Splicing RT-qPCR gene panel, SMN2 canonical junction (CJ) mRNA. Conditions: Homo sapiens, Tables 4A/4B, read-out: SMN2 (IC50, decrease in CJ mRNA, gene panel). The method, boiled down:
(§1)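 First, A673 cells adhered 24 h before dosing, while K562 cells were plated and dosed directly. Both lines were then exposed to compound for 24 h at 37 °C, 5% CO2, top concentration 10 uM. Finally, lysates underwent RT-qPCR of the canonical junction, with ΔΔCt-based relative quantification.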
Background: Quantitative PCR measures a nucleic acid by following its amplification.

Assay [2] relates to HTT mRNA. Put plainly: Splicing RT-qPCR assay, HTT canonical (CJ) and alternative (AJ) junction mRNA. Conditions: Homo sapiens, A673 or K562 cells, 24 hours compound treatment; for IC50: 24 h, read-out: HTT CJ (IC50, decrease in canonical junction mRNA); for AC50: read-out: HTT AJ (AC50, increase in alternative junction mRNA). The method, boiled down:
(§2)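 A673 or K562 cells were treated 24 h at 37 °C with an 11-point 3-fold compound dilution series (top 10 uM, DMSO ≤0.25%). Lysates went to one-step RT-qPCR measuring canonical (CJ) and alternative-exon (AJ) junction transcripts, normalized to GAPDH, GUSB or PPIA.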

Assay [3] concerns Target C mRNA. Put plainly: Splicing RT-qPCR gene panel, Target C canonical junction (CJ) mRNA. As to conditions: Homo sapiens, Tables 4A/4B, read-out: Target C (IC50, decrease in CJ mRNA, gene panel). Summed up:
as §1

Assay [4] deals with MYB mRNA. Put plainly: Splicing RT-qPCR assay, MYB canonical (CJ) and alternative (AJ) junction mRNA. As to conditions: Homo sapiens; for AC50: read-out: MYB AJ (AC50, increase in alternative junction mRNA). The method, boiled down:
as §2

The subject of assay [5] is HTT mRNA. Put plainly: Splicing RT-qPCR gene panel, HTT canonical junction (CJ) mRNA. As to conditions: Homo sapiens, Tables 4A/4B, read-out: HTT (IC50, decrease in CJ mRNA, gene panel). The method, boiled down: as §1
Where [6] appears, read: 24 h, A673 or K562 cells, 24 hours compound treatment, RT-qPCR.
The mark [7] stands for this setting: 24 h, A673 or K562 cells, 24 hours compound treatment, RT-qPCR, read-out: MYB CJ (IC50, decrease in canonical junction mRNA).
Setting [8] is: Tables 4A/4B, canonical junction qPCR panel, read-out: MYB (IC50, decrease in CJ mRNA, gene panel).

One may read the IC50 as the concentration at which inhibition is half-maximal. In general, AC50 refers to the concentration at which the activity in the assay is half-maximal. Consider `Cc1cn2cc(NC(=O)c3ccc(N4CCNCC4)c4cn(Cc5cnco5)nc34)cc(F)c2n1` [Compound 366, N-{8-fluoro-2-methylimidazo[1,2-a]pyridin-6-yl}-2-(1,3-oxazol-5-ylmethyl)-4-(piperazin-1-yl) indazole-7-carboxamide], for which the IC50 was below 0.1 µM in assay [1]; 1 to 10 µM in assay [2]; above 10 µM in assay [3]; below 0.1 µM in assay [4] (setting [7]); below 0.1 µM in assay [4] (setting [8]); 1 to 10 µM in assay [5]. The AC50 in assay [2] is 1 to 10 µM; in assay [4] (setting [6]) it was below 0.1 µM.
On to `COC(C)Cn1cc2c(N3CCNCC3)ccc(C(=O)Nc3cc(F)c4nc(C)cn4c3)c2n1` (stereo not shown) [Compound 367, N-{8-fluoro-2-methylimidazo[1,2-a]pyridin-6-yl}-2-(2-methoxypropyl)-4-(piperazin-1-yl) indazole-7-carboxamide; trifluoroacetic acid], for which the IC50 is below 0.1 µM in assay [1]; 1 to 10 µM in assay [2]; above 10 µM in assay [3]; 0.1 to 1 µM in assay [4] (setting [7]); 0.1 to 1 µM in assay [4] (setting [8]); 1 to 10 µM in assay [5]. Besides, the AC50 in assay [2] was 1 to 10 µM; in assay [4] (setting [6]), 0.1 to 1 µM.
Take `Cc1cn2cc(NC(=O)c3ccc(N4CCNCC4)c4cn(Cc5cn(C)nn5)nc34)cc(F)c2n1` [Compound 368, N-{8-fluoro-2-methylimidazo[1,2-a]pyridin-6-yl}-2-[(1-methyl-1,2,3-triazol-4-yl)methyl]-4-(piperazin-1-yl) indazole-7-carboxamide; trifluoroacetic acid]: the IC50 is below 0.1 µM in assay [1]; above 10 µM in assay [2]; above 10 µM in assay [3]; 0.1 to 1 µM in assay [4] (setting [7]); 0.1 to 1 µM in assay [4] (setting [8]); above 10 µM in assay [5]. In addition, the results for the AC50 in assay [2] and in assay [4] (setting [6]) were above 10 µM and 0.1 to 1 µM, respectively.
On to `Cc1cn2cc(NC(=O)c3ccc(N4CCC(NCCO)CC4)c4cn(C)nc34)cc(F)c2n1` [Compound 369, N-{8-fluoro-2-methylimidazo[1,2-a]pyridin-6-yl}-4-{4-[(2-hydroxyethyl)amino]piperidin-1-yl}-2-methylindazole-7-carboxamide], for which the IC50 is below 0.1 µM in assay [1]; 0.1 to 1 µM in assay [2]; 1 to 10 µM in assay [3]; below 0.1 µM in assay [4] (setting [7]); below 0.1 µM in assay [4] (setting [8]); 0.1 to 1 µM in assay [5]. The AC50 in assay [2] is 0.1 to 1 µM; in assay [4] (setting [6]) it was below 0.1 µM.
Regarding `Cc1cn2cc(NC(=O)c3ccc(N4CCC(N)(C(F)(F)F)CC4)c4cn(C)nc34)cc(F)c2n1` [Compound 370, 4-[4-amino-4-(trifluoromethyl)piperidin-1-yl]-N-{8-fluoro-2-methylimidazo[1,2-a]pyridin-6-yl}-2-methylindazole-7-carboxamide], the IC50 in assay [1] was 0.1 to 1 µM; in assay [2] it was above 10 µM; in assay [3] it was above 10 µM; in assay [4] (setting [7]) it was 0.1 to 1 µM; in assay [4] (setting [8]), 0.1 to 1 µM; in assay [5], above 10 µM. Moreover, the AC50 is above 10 µM in assay [2] and 1 to 10 µM in assay [4] (setting [6]).
As for `Cc1cn2cc(NC(=O)c3ccc(N4CC[C@@H](NC5CC5)C4)c4cn(C)nc34)cc(F)c2n1` [Compound 371, 4-[(3R)-3-(cyclopropylamino)pyrrolidin-1-yl]-N-{8-fluoro-2-methylimidazo[1,2-a]pyridin-6-yl}-2-methylindazole-7-carboxamide], the IC50 in assay [1] is below 0.1 µM; in assay [2], 0.1 to 1 µM; in assay [3] it was above 10 µM; in assay [4] (setting [7]), below 0.1 µM; in assay [4] (setting [8]), below 0.1 µM; in assay [5], above 10 µM. Besides, the AC50 in assay [2] is 0.1 to 1 µM; in assay [4] (setting [6]), below 0.1 µM.
Regarding `Cc1cn2cc(NC(=O)c3ccc(N4CC[C@H](NC5CC5)C4)c4cn(C)nc34)cc(F)c2n1` [Compound 372, 4-[(3S)-3-(cyclopropylamino)pyrrolidin-1-yl]-N-{8-fluoro-2-methylimidazo[1,2-a]pyridin-6-yl}-2-methylindazole-7-carboxamide], the IC50 in assay [1] was below 0.1 µM; in assay [2], 1 to 10 µM; in assay [3] it was above 10 µM; in assay [4] (setting [7]), below 0.1 µM; in assay [4] (setting [8]), below 0.1 µM; in assay [5] it was above 10 µM. Besides, the figures for the AC50 in assay [2] and in assay [4] (setting [6]) were 1 to 10 µM and below 0.1 µM, respectively.
For the compound `Cc1cn2cc(NC(=O)c3ccc(N4CCC(NC5(CF)CC5)C4)c4cn(C)nc34)cc(F)c2n1` (stereo not shown) [Compound 373, N-{8-fluoro-2-methylimidazo[1,2-a]pyridin-6-yl}-4-(3-{[1-(fluoromethyl)cyclopropyl]amino}pyrrolidin-1-yl)-2-methylindazole-7-carboxamide], the half-maximal inhibitory concentration (IC50) is below 0.1 µM in assay [1]; 1 to 10 µM in assay [2]; above 10 µM in assay [3]; below 0.1 µM in assay [4] (setting [7]); below 0.1 µM in assay [4] (setting [8]); 1 to 10 µM in assay [5]. Further, the AC50 was 1 to 10 µM in assay [2] and below 0.1 µM in assay [4] (setting [6]).
With `CCn1cc2c(N3CCC(NC)C3)ccc(C(=O)Nc3cc(F)c4nc(C)cn4c3)c2n1` (stereo not shown) [Compound 374, 2-ethyl-N-{8-fluoro-2-methylimidazo[1,2-a]pyridin-6-yl}-4-[3-(methylamino)pyrrolidin-1-yl]indazole-7-carboxamide], the IC50 in assay [1] is below 0.1 µM; in assay [2], above 10 µM; in assay [3], above 10 µM; in assay [4] (setting [7]), below 0.1 µM; in assay [4] (setting [8]) it was below 0.1 µM; in assay [5], above 10 µM. Further, the AC50 in assay [2] was above 10 µM; in assay [4] (setting [6]), below 0.1 µM.
Consider `CCn1cc2c(N3CCC(N(C)C)C3)ccc(C(=O)Nc3cc(F)c4nc(C)cn4c3)c2n1` (stereo not shown) [Compound 375, 4-[3-(dimethylamino)pyrrolidin-1-yl]-2-ethyl-N-{8-fluoro-2-methylimidazo[1,2-a]pyridin-6-yl}indazole-7-carboxamide], for which the IC50 in assay [1] was below 0.1 µM; in assay [2], 0.1 to 1 µM; in assay [3], 0.1 to 1 µM; in assay [4] (setting [7]), 0.1 to 1 µM; in assay [4] (setting [8]), 0.1 to 1 µM; in assay [5] it was 0.1 to 1 µM. Besides, the half-maximal activity concentration (AC50) in assay [2] and in assay [4] (setting [6]) was 0.1 to 1 µM each time.
Take `CCn1cc2c(N3CCC(NC4CC4)CC3)ccc(C(=O)Nc3cc(F)c4nc(C)cn4c3)c2n1` [Compound 376, 4-[4-(cyclopropylamino)piperidin-1-yl]-2-ethyl-N-{8-fluoro-2-methylimidazo[1,2-a]pyridin-6-yl}indazole-7-carboxamide]: the IC50 was below 0.1 µM in assay [1]; 0.1 to 1 µM in assay [2]; above 10 µM in assay [3]; 0.1 to 1 µM in assay [4] (setting [7]); below 0.1 µM in assay [4] (setting [8]); 1 to 10 µM in assay [5]. In addition, the AC50 in assay [2] was in the range of 1 to 10 µM; in assay [4] (setting [6]) it was 0.1 to 1 µM.
For `CCn1cc2c(N3C[C@@H](C)N[C@@H](C)C3)ccc(C(=O)Nc3cc(F)c4nc(C)cn4c3)c2n1` [Compound 377, 4-[(3R,5S)-3,5-dimethylpiperazin-1-yl]-2-ethyl-N-{8-fluoro-2-methylimidazo[1,2-a]pyridin-6-yl}indazole-7-carboxamide], the IC50 was below 0.1 µM in assay [1]; 1 to 10 µM in assay [2]; 1 to 10 µM in assay [3]; 0.1 to 1 µM in assay [4] (setting [7]); below 0.1 µM in assay [4] (setting [8]); 1 to 10 µM in assay [5]. Besides, the figures for the AC50 in assay [2] and in assay [4] (setting [6]) were 1 to 10 µM and 0.1 to 1 µM, respectively.
As to `CCn1cc2c(N3CCN(C)CC3)ccc(C(=O)Nc3cc(F)c4nc(C)cn4c3)c2n1` [Compound 378, 2-ethyl-N-{8-fluoro-2-methylimidazo[1,2-a]pyridin-6-yl}-4-(4-methylpiperazin-1-yl) indazole-7-carboxamide], the IC50 was below 0.1 µM in assay [1]; 1 to 10 µM in assay [2]; above 10 µM in assay [3]; 0.1 to 1 µM in assay [4] (setting [7]); below 0.1 µM in assay [4] (setting [8]); 1 to 10 µM in assay [5]. Moreover, the AC50 in assay [2] lay in the range of 1 to 10 µM; in assay [4] (setting [6]) it was 0.1 to 1 µM.
On to `CCn1cc2c(N3CCNC4(CC4)C3)ccc(C(=O)Nc3cc(F)c4nc(C)cn4c3)c2n1` [Compound 379, 4-{4,7-diazaspiro[2.5]octan-7-yl}-2-ethyl-N-{8-fluoro-2-methylimidazo[1,2-a]pyridin-6-yl}indazole-7-carboxamide], for which the half-maximal inhibitory concentration (IC50) is below 0.1 µM in assay [1]; 1 to 10 µM in assay [2]; 1 to 10 µM in assay [3]; 0.1 to 1 µM in assay [4] (setting [7]); 0.1 to 1 µM in assay [4] (setting [8]); 1 to 10 µM in assay [5]. Further, the AC50 is above 10 µM in assay [2] and 1 to 10 µM in assay [4] (setting [6]).

The record behind these values is patent US20250154169A1, “COMPOUNDS AND METHODS FOR MODULATING SPLICING” (REMIX THERAPEUTICS INC., priority 2021, published 2025).
